Like-named read-outs stand apart in the source and are kept apart here.
Key:
[1] = system: U-87 MG GBM (glioblastoma) cells; assay: Growth of glioblastoma cells in vitro, Alamar Blue; format: cell-based; conditions: Homo sapiens, 72 h, U87-MG cells, three days, normalized to DMSO-treated wells, three independent experiments
Protocol: FIG. 4 depicts the effects of two compounds active in NF1−/− MPNST cells on the growth of U-87 MG GBM (glioblastoma) cells in vitro. FIG. 4a depicts the effects of the compound of Formula I(a); FIG. 4b depicts the effects of the compound of Formula IV(c). U87-MG cells were seeded in 96 well plates at a density of 1000 per well in DMEM containing 10% fetal bovine serum. The next day, medium was removed and fresh medium containing 0.1% DMSO or compound was added back. Plates were incubated for three days at 37° C., 5% CO2. Cell growth was assessed with Alamar Blue with values normalized to the DMSO-treated wells. Values are mean of three wells. The AC50 for the compound of Formula Ia was 3.77 micromolar +/−0.7. The AC50 for the compound of Formula IV(c) was 0.97 micromolar +/−0.1. AC50 was calculated using data from three independent experiments.

[2] = system: STS26T (26T, NF1 wild type MPNST/sarcoma cells); assay: In vitro growth of NF1 wild type MPNST cells, alamar blue, dose-response; format: cell-based, human; conditions: for IC50: Homo sapiens, STS-26T
Protocol: (§1) The NF1−/− MPNST line T265 used for the screen provides two additional readouts for the chemical approaches to suppress the phenotypes of NFI loss: activated Ras (Mahller et al., 2005) and activated MAPK (FIG. 1). In vitro growth assays of the two cell lines (NF1 positive and NF1 negative) are scaled down to 384 well plates. An Evotec Technologies plate::explorer uHTS system is used. MPNST cell lines T265 and STS26T in logarithmic growth phase are plated in separate 384 well plates at a density of 500 cells per well in Dulbecco's modified Eagle's medium (DMEM; Fisher Scientific; Pittsburgh, Pa.) supplemented with 10% Fetal Bovine Serum (Harlan; Indianapolis, Ind.) containing vehicle (DMSP, “Dimethyl Sulfoxide”) only or one of 13,031 candidate compounds at a concentration of 10 micromolar, a concentration of drug shown not to cause cell death of many human cell lines. The candidate compounds are selected to represent a cross section of compounds covering the diversity space resident in the available library, restricted to drug-like compounds, but evenly and consistently representative across this realm and representative of commercially available compounds. Compounds targeting GPCRs, kinases and other targets of known medical interest are also included. The cells are incubated with the compounds or 5 μg/ml doxorubicin as a positive control for 2 days. Growth is monitored by using the alamar blue method (Alley et al. 1988; Ahmed et al. 1994.) Metabolic activity of cells results in reduction of alamar blue and a large increase in alamar blue fluorescence, which correlates with cell number. Candidate compounds causing interference with fluorescence are eliminated. […] Appropriate control samples and statistical analyses are used.
(§2) Confirmed hits that decreased viability of both cell lines were identified as possible therapeutic agents. A smaller population of hits selectively affected the non-NF1 cell line. These seven confirmed “hits,” or potential therapeutic agents, were tested using the same assay method at 10 concentrations, in triplicate, to give a dose-response and to determine the AC50 (the concentration at which 50% of the maximum activity or inhibition is achieved) for each compound. Using the initial screen, seven compounds are identified showing a significant differential growth inhibition of the mutant NF1 cells relative to wild type NF1 cells.

[3] = system: cells lacking Ira2 and Erg6; assay: Growth of strains lacking Ira2 and Erg6, optical density at 595 nm; format: cell-based; conditions: Synthetic Complete media, 32C, 24 h, OD 595 nm
Protocol: FIG. 3. […] Strains were grown overnight in Synthetic Complete media. 75 μL of culture at a starting optical density of 0.1 were added to a 96 well plate containing 75 μL of Synthetic Complete media with twice the desired final concentration of compound in 1% DMSO. Plates were incubated in a humidified 32C chamber, and scanned on an optical density plate reader at 595 nm after 24 h. The bars represent the mean of three wells, and the error bars represent ±2× standard error.

[4] = system: T265 (NF1 mutant MPNST/sarcoma cells); assay: In vitro growth of NF1 mutant MPNST cells, alamar blue, dose-response; format: cell-based; conditions: Homo sapiens
Protocol: as §1, §2

[5] = 48 h, Table 3, STS26T cells, alamar blue, 2 days, 10 concentrations in triplicate, read-out: 26T IC50
[6] = Table 4, NF1 wild type (26T) sarcoma cells, read-out: IC50, 26T
[7] = 48 h, Table 3, T265 cells, alamar blue, 2 days, 10 concentrations in triplicate, read-out: T265 IC50
[8] = Table 4, NF1 mutant sarcoma cells (T265), read-out: IC50, T265

Row | SMILES | AC50 [1] [µM] | IC50 [2, 5] [µM] | IC50 [2, 6] [µM] | Inhibition of growth [3] | IC50 [4, 7] [µM] | IC50 [4, 8] [µM] | 26T IC50 ([2]; Table 3, STS26T cells, alamar blue, 2 days, 10 concentrations in triplicate)
1 | Cc1ccc(NC(=O)C2=C(c3ccccc3)S(=O)(=O)CCS2(=O)=O)cc1 [Formula IV(c)] | 0.97 | – | – | – | – | – | –
2 | N=C(N)SCc1cn(-c2ccccc2)nc1-c1cccc(Br)c1 [Formula Ia] | 3.77 | 50.3 | 50.3 | Inhibition of growth | 1.3 | 1.3 | –
3 | CCCCc1ccc2nc(-c3ccccc3)cc(C(=O)NC(C(=O)NC(C)CCCN(CC)CC)C(C)C)c2c1 (centres unmarked) [III] | – | – | – | – | 3 | – | No Effect
4 | Cc1ccc(Cn2c(=N)n(CC(O)c3ccc(Br)cc3)c3ccccc32)cc1 (centres unmarked) [VIII] | – | 19.5 | 19.5 | – | 1.1 | 1.1 | –
5 | Cc1ccc(Cn2c(=N)n(CC(=O)c3ccc(Br)cc3)c3ccccc32)cc1 [VII] | – | 0.056 | – | – | 0.078 | – | –
6 | CCc1cc(-c2ccccc2OS(=O)(=O)c2ccc3ccccc3c2)nn1CCNCCOc1ccccc1 [VI] | – | 1.9 | – | – | 4.5 | – | –
7 | CCc1cc(-c2ccccc2OS(=O)(=O)c2ccc3ccccc3c2)nn1CCNCCc1ccc(OC)c(OC)c1 [V] | – | 22.8 | 22.9 | – | 2.8 | 2.9 | –
8 | CCN(CC)C(=S)SCC(=O)n1c(C)cc(-c2ccccc2F)c1C [XI] | – | 1 | – | – | 1.7 | – | –
